Test results published in patent publication US9981956B2, “Small molecule inhibitors of fibrosis” (THE CALIFORNIA INSTITUTE FOR BIOMEDICAL RESEARCH, priority 2013, dated 2018).

What follows are compounds tested on fibroblast to myofibroblast transdifferentiation (primary human lung fibroblasts and primary rodent HSCs) (assay: High content imaging and western based assay of fibroblast to myofibroblast transdifferentiation (α-SMA)). Settings: graded, TGF-β induced fibroblast to myofibroblast transdifferentiation.
Type: cell-based
Description: A high content imaging assay, based on α-SMA staining and cell morphological changes associated with fibroblast to myofibroblast transdifferentiation, was established using primary human lung fibroblasts and primary rodent HSCs. Conditions, involving serum starvation and subsequent TGF-β treatment, were identified that facilitate robust in vitro transdifferentiation in a miniaturized (384 well plate) format that is amenable to high throughput small molecule screening. A selective ALK-5 TGF-β1 receptor inhibitor (SB-431542) was used as a positive control. […] This assay was used to identify a hit compound (itraconazole) and was used to evaluate focused panels of itraconazole analogues generated from medicinal chemistry efforts.
The activity of Itraconazole and its analogues was confirmed by analyzing changes in gene expression of multiple genes associated with fibroblast to myofibroblast transdifferentiation using biochemical methods (i.e., Western blot and RT-PCR). These 4-day assays were used to evaluate sets of 6 compounds at a time in 4-point dose response fashion.
After 24 hour incubation, cells were treated with the indicated doses of itraconazole for 48 hours in the presence of 10 ng/mL of TGF-β1 in hepatic stellate medium. Following fixation and staining with an anti smooth muscle actin antibody, cell morphology was analyzed with a Cellomics cell insight imaging reader (FIG. 1 for representative images). Cells were analyzed for mean cellular area of a-SMA staining (FIG. 5a) or mean fluorescence intensity of SMA staining (FIG. 5b).
After 24 incubation, medium was changed to assay medium containing TGF-β1 (10 ng/mL) and simultaneously treated with itraconazole (10 μM), SB431542 (10 μM) or vehicle control (FIG. 6).
For `CCC(C)n1ncn(-c2ccc(N3CCN(c4ccc(OC[C@H]5CO[C@@](Cn6cncn6)(c6ccc(F)cc6F)O5)cc4)CC3)cc2)c1=O` (mixture of isomers) [Compound 7], the EC50 was 5 to 30 µM.
In the case of `CCC(C)n1ncn(-c2ccc(N3CCN(c4ccc(OC[C@@H]5CO[C@](Cn6nc7ccccc7n6)(c6ccc(Cl)cc6Cl)O5)cc4)CC3)cc2)c1=O` (mixture of isomers) [Compound 17], the EC50 is reported as 5 to 30 µM.
In the case of `CCC(C)n1ncn(-c2ccc(N3CCN(c4ccc(OC[C@@H]5CO[C@](Cn6nccn6)(c6ccc(Cl)cc6Cl)O5)cc4)CC3)cc2)c1=O` (mixture of isomers) [Compound 18], the EC50 is reported as 5 to 30 µM.
With `CC[C@@H]([C@H](C)O)n1ncn(-c2ccc(N3CCN(c4ccc(OC[C@@H]5CO[C@@](Cn6cncn6)(c6ccc(F)cc6F)C5)cc4)CC3)cc2)c1=O` (racemic) [POS, reference compound] the EC50 was 5 to 30 µM.
Work on `CCC(C)n1cnn(-c2ccc(N3CCN(c4ccc(OC[C@@H]5CO[C@@](Cn6nccn6)(c6ccc(F)cc6F)O5)cc4)CC3)cc2)c1=O` (stereo partly drawn) [Compound 3] yielded an EC50 of 5 to 30 µM.
Work on `CCC(C)n1cnn(-c2ccc(N3CCN(c4ccc(OC[C@@H]5CO[C@@](Cn6ccc(C)n6)(c6ccc(F)cc6F)O5)cc4)CC3)cc2)c1=O` (stereo partly drawn) [Compound 4] yielded an EC50 of 5 to 30 µM.
With `CCC(C)n1cnn(-c2ccc(N3CCN(c4ccc(OC[C@@H]5CO[C@@](Cn6cnc(C)n6)(c6ccc(F)cc6F)O5)cc4)CC3)cc2)c1=O` (stereo partly drawn) [Compound 5] the EC50 was 5 to 30 µM.
Work on `CCC(C)n1ncn(-c2ccc(N3CCN(c4ccc(OC[C@@H]5CO[C@@](Cn6cncn6)(c6ccc(F)cc6F)O5)cc4)CC3)cc2)c1=O` (stereo partly drawn) [Compound 6] yielded an EC50 of 0.5 to 5 µM.
With `CCC(C)n1cnn(-c2ccc(N3CCN(c4ccc(OC[C@@H]5CO[C@@](Cn6nnc7ccccc76)(c6ccc(F)cc6F)O5)cc4)CC3)cc2)c1=O` (stereo partly drawn) [Compound 8] the EC50 was 0.5 to 5 µM.
For `CCC(C)n1ncn(-c2ccc(N3CCN(c4ccc(OC[C@@H]5CO[C@@](Cn6cnc(Br)n6)(c6ccc(F)cc6F)O5)cc4)CC3)cc2)c1=O` (stereo partly drawn) [Compound 9], the EC50 was 5 to 30 µM.
`CCC(C)n1ncn(-c2ccc(N3CCN(c4ccc(OC[C@@H]5CO[C@@](Cn6cnc(C(F)(F)F)n6)(c6ccc(F)cc6F)O5)cc4)CC3)cc2)c1=O` (stereo partly drawn) [Compound 10] gave an EC50 of 5 to 30 µM.
Work on `CCC(C)n1ncn(-c2ccc(N3CCN(c4ccc(OC[C@@H]5CO[C@@](Cn6nc(Br)nc6Br)(c6ccc(F)cc6F)O5)cc4)CC3)cc2)c1=O` (stereo partly drawn) [Compound 11] yielded an EC50 of 5 to 30 µM.
`CCC(C)n1cnn(-c2ccc(N3CCN(c4ccc(OC[C@@H]5CO[C@@](Cn6nc7ccccc7n6)(c6ccc(F)cc6F)O5)cc4)CC3)cc2)c1=O` (stereo partly drawn) [Compound 12] gave an EC50 of 5 to 30 µM.
`CC(C)n1ncn(-c2ccc(N3CCN(c4ccc(OC[C@@H]5CO[C@@](Cn6cncn6)(c6ccc(F)cc6F)O5)cc4)CC3)cc2)c1=O` [Compound 13] gave an EC50 of 5 to 30 µM.
`CC(C)Cn1ncn(-c2ccc(N3CCN(c4ccc(OC[C@@H]5CO[C@@](Cn6cncn6)(c6ccc(F)cc6F)O5)cc4)CC3)cc2)c1=O` [Compound 14] showed an EC50 of 5 to 30 µM.
`CCC(C)n1cnn(-c2ccc(N3CCN(c4ccc(OC[C@@H]5CO[C@@](Cn6nc7ccccc7n6)(c6ccc(Cl)cc6Cl)O5)cc4)CC3)cc2)c1=O` (stereo partly drawn) [Compound 16] gave an EC50 of 5 to 30 µM.
Work on `CCC(C)n1ncn(-c2ccc(N3CCN(c4ccc(OC[C@@H]5CO[C@@](Cn6cnc7ccccc76)(c6ccc(Cl)cc6Cl)O5)cc4)CC3)cc2)c1=O` (stereo partly drawn) [Compound 20] yielded an EC50 of 0.5 to 5 µM.
In the case of `CCC(C)n1ncn(-c2ccc(N3CCN(c4ccc(OC[C@@H]5CO[C@@](Cn6nccn6)(c6ccc(Cl)cc6Cl)O5)cc4)CC3)cn2)c1=O` (stereo partly drawn) [Compound 25], the EC50 is reported as 5 to 30 µM.
For `CC(O)C(C)n1ncn(-c2ccc(N3CCN(c4ccc(OC[C@@H]5CO[C@@](Cn6nccn6)(c6ccc(Cl)cc6Cl)O5)cc4)CC3)cc2)c1=O` (stereo partly drawn) [Compound 28], the EC50 was 0.5 to 5 µM.
In the case of `CC(O)C(C)n1ncn(-c2ccc(N3CCN(c4ccc(OC[C@@H]5CO[C@@](Cc6ccnnc6)(c6ccc(Cl)cc6Cl)O5)cc4)CC3)cc2)c1=O` (stereo partly drawn) [Compound 29], the EC50 is reported as under 0.5 µM.
Work on `CCC(C)n1ncn(-c2ccc(N3CCN(c4ccc(OC[C@@H]5CO[C@@](Cn6nccn6)(c6cc(Cl)cc(Cl)c6)O5)cc4)CC3)cc2)c1=O` (stereo partly drawn) [Compound 31] yielded an EC50 of 0.5 to 5 µM.
`CCC(C)n1ncn(-c2ccc(N3CCN(c4ccc(OC[C@@H]5CO[C@@](Cn6nccn6)(c6cccc(Cl)c6)O5)cc4)CC3)cc2)c1=O` (stereo partly drawn) [Compound 33] was tested, and the EC50 was 0.5 to 5 µM.
Work on `CCc1ccc([C@]2(Cn3nccn3)OC[C@@H](COc3ccc(N4CCN(c5ccc(-n6cnn(C(C)CC)c6=O)cc5)CC4)cc3)O2)cc1` (stereo partly drawn) [Compound 34] yielded an EC50 of 0.5 to 5 µM.
With `CCC(C)n1ncn(-c2ccc(N3CCN(c4ccc(OC[C@@H]5CO[C@@](Cn6nccn6)(c6ccc(Br)cc6)O5)cc4)CC3)cc2)c1=O` (stereo partly drawn) [Compound 35] the EC50 was 0.5 to 5 µM.
In the case of `CCC(C)n1ncn(-c2ccc(N3CCN(c4ccc(OC[C@@H]5CO[C@@](Cn6nccn6)(c6ccc(C#N)cc6)O5)cc4)CC3)cc2)c1=O` (stereo partly drawn) [Compound 37], the EC50 is reported as 0.5 to 5 µM.
`CCC(C)n1ncn(-c2ccc(N3CCN(c4ccc(OC[C@@H]5CO[C@@](Cn6nccn6)(c6ccc(C(F)(F)F)cc6)O5)cc4)CC3)cc2)c1=O` (stereo partly drawn) [Compound 38] was tested, and the EC50 was 0.5 to 5 µM.
For `CCC(C)n1ncn(-c2ccc(N3CCN(c4ccc(OC[C@@H]5CO[C@@](Cn6nccn6)(c6ccc(OC)cc6)O5)cc4)CC3)cc2)c1=O` (stereo partly drawn) [Compound 39], the EC50 was 0.5 to 5 µM.
`CCC(C)n1ncn(-c2ccc(N3CCN(c4ccc(OC[C@@H]5CO[C@@](Cn6nccn6)(c6ccc(C)cc6)O5)cc4)CC3)cc2)c1=O` (stereo partly drawn) [Compound 40] was tested, and the EC50 was 0.5 to 5 µM.
Compound `CCC(C)n1ncn(-c2ccc(N3CCN(c4ccc(OC[C@@H]5CO[C@@](Cn6nccn6)(c6ccccc6C(F)(F)F)O5)cc4)CC3)cc2)c1=O` (stereo partly drawn) [Compound 43] has an EC50 of 5 to 30 µM.
In the case of `CCC(C)n1ncn(-c2ccc(N3CCN(c4ccc(OC[C@@H]5CO[C@@](Cn6nccn6)(c6ccc(S(C)(=O)=O)cc6)O5)cc4)CC3)cc2)c1=O` (stereo partly drawn) [Compound 44], the EC50 is reported as 5 to 30 µM.
`CCC(C)n1ncn(-c2ccc(N3CCN(c4ccc(OC[C@@H]5CO[C@@](Cn6nccn6)(c6ccccc6OC)O5)cc4)CC3)cc2)c1=O` (stereo partly drawn) [Compound 45] showed an EC50 of 5 to 30 µM.
Compound `CCC(C)n1ncn(-c2ccc(N3CCN(c4ccc(OC[C@@H]5CO[C@@](Cn6nccn6)(c6ccc(Cl)cc6Cl)O5)c(C)c4)CC3)cc2)c1=O` (stereo partly drawn) [Compound 46] has an EC50 of 5 to 30 µM.
Compound `CCC(C)n1ncn(-c2ccc(N3CCN(c4ccc(OC[C@@H]5CO[C@@](Cn6nccn6)(c6ccc(Cl)cc6Cl)O5)c(OC)c4)CC3)cc2)c1=O` (stereo partly drawn) [Compound 47] has an EC50 of 5 to 30 µM.
With `CCC(C)n1ncn(-c2ccc(N3CCN(c4ccc(OC[C@@H]5CO[C@@](Cn6nccn6)(c6ccc(Cl)cc6Cl)O5)c(Cl)c4)CC3)cc2)c1=O` (stereo partly drawn) [Compound 48] the EC50 was 0.5 to 5 µM.
With `CCC(C)n1ncn(-c2ccc(N3CCN(c4ccc(OC[C@@H]5CO[C@@](Cn6nccn6)(c6ccc(Cl)cc6Cl)O5)cc4C)CC3)cc2)c1=O` (stereo partly drawn) [Compound 50] the EC50 was 0.5 to 5 µM.
In the case of `CCC(C)n1ncn(-c2ccc(N3CCN(c4ccc(OC[C@@H]5CO[C@@](Cn6nccn6)(c6ccc(Cl)cc6Cl)O5)cc4OC)CC3)cc2)c1=O` (stereo partly drawn) [Compound 51], the EC50 is reported as 0.5 to 5 µM.
With `CCC(C)n1ncn(-c2ccc(N3CCN(c4ccc(OC[C@@H]5CO[C@@](Cn6nccn6)(c6ccc(Cl)cc6Cl)O5)cc4C#N)CC3)cc2)c1=O` (stereo partly drawn) [Compound 52] the EC50 was 0.5 to 5 µM.
`CCC(C)n1ncn(-c2ccc(N3CCN(c4ccc(OC[C@@H]5CO[C@@](Cn6nccn6)(c6ccc(Cl)cc6Cl)O5)cc4Cl)CC3)cc2)c1=O` (stereo partly drawn) [Compound 53] showed an EC50 of 0.5 to 5 µM.
`CCC(C)n1ncn(-c2ccc(N3CCN(c4ccc(OC[C@@H]5CO[C@@](Cn6nccn6)(c6ncccn6)O5)cc4)CC3)cc2)c1=O` (stereo partly drawn) [Compound 56] was tested, and the EC50 was 5 to 30 µM.
